Among the data in patent US8835440B2, “Cyclic pyrimidin-4-carboxamides as CCR2 receptor antagonists for treatment of inflammation, asthma and COPD” (Boehringer Ingelheim International GmbH, priority 2008, dated 2014) are remaining activity and Ki values, retold here.

In general, Ki refers to a dissociation constant, usually derived from enzyme kinetics or from competition with a known ligand. A higher Ki goes with lower affinity.

In this assay the target is T1, CCR2 (Homo sapiens, UniProt P41597).
T1 construct: Membranes were prepared from THP-1 cells; endogenous in cells; host or cells: THP-1 cells (membrane preparation)
T1 sequence (P41597 1-360 isoform P41597-2): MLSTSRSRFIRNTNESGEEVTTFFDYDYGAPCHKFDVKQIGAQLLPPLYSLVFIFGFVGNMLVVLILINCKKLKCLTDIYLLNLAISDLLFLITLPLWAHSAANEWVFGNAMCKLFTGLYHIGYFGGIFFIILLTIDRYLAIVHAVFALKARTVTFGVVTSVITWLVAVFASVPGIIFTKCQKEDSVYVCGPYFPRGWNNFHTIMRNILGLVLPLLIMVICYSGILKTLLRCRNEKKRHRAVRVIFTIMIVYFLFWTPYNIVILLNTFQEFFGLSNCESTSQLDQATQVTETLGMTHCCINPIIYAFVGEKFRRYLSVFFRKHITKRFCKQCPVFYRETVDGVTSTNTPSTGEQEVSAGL
The assay is described as follows: CCR2 receptor membrane binding assay ([125I]MCP-1, THP-1 cell membranes, SPA beads). To be noted: for remaining activity at 10 µM: @ 10 μM test compound, THP-1 membranes, read-out: CCR2 % ctrl @ 10 μM; for Ki: dissociation constant hKi, [125I]MCP-1 binding to THP-1 membranes. Here is the method:
The above exemplary substances have been tested for binding to CCR2 using a binding assay as outlined herein below:
THP-1 cells (human acute monocytic leukaemia cells) were cultured under standardized conditions at 37° C. and 5% CO2 in a humidified incubator. THP-1 cells were cultivated in RPMI 1640 medium (Gibco 21875) containing 1% MEM-NEAA (Gibso 11140) 2 mM L-glutamine, 1.5 g/L sodium bicarbonate, 4.5 g/L glucose, 10 mM HEPES and 1.0 mM sodium pyruvate, 90%; 10% fetal calf serum (FCS Gibco 10500-064).
Membranes were prepared from THP-1 cells. THP-1 cells were centrifuged at 300×g at 4° C. for 10 min. The cell pellet was resuspendet in Phosphate Buffer Saline (PBS, including 10 μM Pefabloc and a protease inhibitor mix ‘complete’, Boehringer Mannheim (1 tablet/50 ml)), to a concentration of […]. The membrane preparation was performed by disrupting the cells by nitrogen […] (at 50 bar, for 1 h) in a “Nitrogen Bombe” (Parr Instrument). Cell debris was removed by centrifugation (800×g at 4° C., 1 min). The supernatant was centrifuged at 80000×g, 4° C. for 30 min to sediment the cell membranes. Usually 50 mg of protein (Bradford assay) were yielded from 1×10E9 cells. The membranes were resuspendet in 25 mM HEPES, 25 mM MgCl2, 1 mM CaCl2, 10% Glycerine for storage in aliquots at −80° C. in 25 mM HEPES, 25 mM MgCl2, 1 mM CaCl2, 10% Glycerine and stored at −80° C.
Receptor Membrane Binding Assay:
Perkin Elmer NEX 332 Jod 125 MCP-1, Stock: 2200 Ci/mmol solved in 2000 μl assay buffer, stored at −20° C. THP-1 membrane were adjusted with 25 mM HEPES, pH 7.2; 5 mM MgCl2; 0.5 mM CaCl2; 0.2% BSA assay buffer to a concentration of […]. Amersham Biosciences PVT-WGA Beads (RPNQ0001) were adjusted with assay buffer to a concentration of 0.24 mg/30 μl. For preparation of the membrane-bead-suspension membranes and beads were incubated for 30 min at RT under rotation (60 rpm) with a ratio of 1:2. Test compounds dissolved in 100% DMSO to a concentration of 10 mM and are further diluted with 100% DMSO to 1 mM. All additional compound dilutions were obtained with assay buffer, final 1% DMSO. Compounds, membrane-bead-suspension and [125I]MCP-1 (ca. 25000 cpm/10 μl) were incubated. Bound radioactivity was determined by scintillation counter after 8 h. Determination of affinity of test compounds (dissociation constant hKi) is calculated by iterative fitting of experimental data using the “easy sys” program, which is based on law of mass action (Schittkowski K. (1994), Numerische Mathematik, Vol. 68, 129-142).

Regarding `Cc1c(NCc2ccc(Cl)c(Cl)c2)ncnc1C(=O)N1CCC(N2CCC3(CC2)CCN(S(C)(=O)=O)C3)CC1` [Example 188], the remaining activity at 10 µM was determined as 53% and the affinity corresponds to a Ki of 3930 nM. The matching figures for `Cc1c(NCCOCc2ccccc2)ncnc1C(=O)N1CCC(N2CCC(O)CC2)CC1` [Example 18]: 52% and 3500 nM. Consider `COC1CCN(C2CCN(C(=O)c3ncnc(NCc4ccc(C(C)C)cc4)c3C)CC2)CC1` [Example 94], for which the remaining activity at 10 µM worked out at 8% and the affinity corresponds to a Ki of 211 nM.

Regarding `COC1COCCC1NC1CCN(C(=O)c2ncnc(NCc3ccc(C(C)(C)C)cc3)c2C)CC1` (centres unmarked) [Example 228c], the remaining activity at 10 µM came to 0% and the affinity, expressed as Ki, was 29 nM. The matching figures for `Cc1c(NCC2CCC(c3ccccc3)CC2)ncnc1C(=O)N1CCC(N2CCCCC2)CC1` (centres unmarked) [Example 138]: 6% and 145 nM.

On to `Cc1c(NCC2COc3ccccc3C2)ncnc1C(=O)N1CCC(N2CCC(O)CC2)CC1` (centres unmarked) [Example 19], for which the remaining activity at 10 µM amounted to 40% and the Ki amounted to 269 nM. The corresponding values for `CCOC1CCN(C2CCN(C(=O)c3ncnc(NCc4ccc(C(C)(C)C)cc4)c3C)CC2)CC1` [Example 198] are 1% and 58 nM.

For the compound `Cc1ccc(CCNc2ncnc(C(=O)N3CCC(N4CCCCC4)CC3)c2C)cc1C` [Example 143], the remaining activity at 10 µM turned out to be 8% and the affinity corresponds to a Ki of 422 nM. The matching figures for `Cc1c(NCc2ccc(C(C)(C)C)cc2)ncnc1C(=O)N1CCC(N(C)C2CCOCC2)CC1` [Example 275a]: 0% and 29 nM. The matching figures for `Cc1c(NCCc2ccc(C(C)(C)C)cc2)ncnc1C(=O)N1CCC(N2CCC(N(C)S(C)(=O)=O)CC2)CC1` [Example 153]: 1% and 27 nM. The matching figures for `CO[C@H]1CN(C2CCN(C(=O)c3ncnc(NCc4ccc(Cl)c(Cl)c4)c3C)CC2)CC[C@H]1NS(C)(=O)=O` [Example 185]: 53% and 4210 nM.

Turning to `CO[C@H]1CCN(C2CCN(C(=O)c3ncnc(NCc4ccc(C(C)(C)C)cc4)c3C)CC2)C1` [Example 220], the remaining activity at 10 µM is 27% and the affinity corresponds to a Ki of 979 nM. Take `CO[C@@H]1COCC[C@@H]1NC1CCN(C(=O)c2ncnc(NC[C@H]3C[C@H](c4ccccc4)C3)c2C)CC1` [Example 275df]: the inhibition constant Ki was 15 nM. In other words, the double-digit nanomolar range. The same measure, in the same setting: the result for `Cc1c(NCC2CCCOC2)ncnc1C(=O)N1CCC(N2CCC(N(C)S(C)(=O)=O)CC2)CC1` (centres unmarked) [Example 159bc] reads 3490 nM; that for `CC(=O)N1CCC[C@@H](NC2CCN(C(=O)c3ncnc(NCc4ccc(C(C)(C)C)cc4)c3C)CC2)C1` [Example 228gc], 561 nM; that for `CO[C@@H]1COCC[C@@H]1NC1CCN(C(=O)c2ncnc(NC[C@H]3CCC[C@@H](c4ccc(C)o4)C3)c2C)CC1` [Example 275da], 4 nM.

With `COC1CCN(C2CCN(C(=O)c3ncnc(NCc4ccc(Cl)c(F)c4)c3C)CC2)CC1` [Example 95], the remaining activity at 10 µM is 2% and the Ki was 170 nM. On to `Cc1c(OCc2ccc(C#N)cc2)ncnc1C(=O)N1CCC(N2CCC(N(C)S(C)(=O)=O)CC2)CC1` [Example 293], for which the remaining activity at 10 µM came out at 27% and the Ki was 717 nM. The matching figures for `Cc1c(NCCc2ccc(Cl)c(Cl)c2)ncnc1C(=O)N1CCC(N2CC[C@@H](C(N)=O)C2)CC1` [Example 232]: 34% and 924 nM. Consider `Cc1c(NCc2ccc(C(C)(C)C)cc2)ncnc1C(=O)N1CCC(N2CCC(Oc3ccc(F)c(F)c3)CC2)CC1` [Example 203], for which the remaining activity at 10 µM is 11% and the Ki was 641 nM.

As for `Cc1c(NCc2ccc(C(F)(F)F)c(Cl)c2)ncnc1C(=O)N1CCC(N2CCC(N(C)S(C)(=O)=O)CC2)CC1` [Example 62], the remaining activity at 10 µM turned out to be 3% and the affinity, expressed as Ki, was 38 nM. The matching figures for `Cc1c(NCCc2ccc(Cl)c(Cl)c2)ncnc1C(=O)N1CCC(N2CC[C@@H](O)[C@@H](O)C2)CC1` [Example 246]: 2% and 306 nM.

On to `Cc1c(NCc2ccc3occc3c2)ncnc1C(=O)N1CCC(N2CCC(O)CC2)CC1` [Example 29], for which the remaining activity at 10 µM stood at 40% and the Ki amounted to 2100 nM.

`Cc1c(NCCc2cn(C)c3ccccc23)ncnc1C(=O)N1CCC(N2CCC(N(C)S(C)(=O)=O)CC2)CC1` [Example 159y] registered a Ki of 169 nM.

As to `Cc1c(NCC2CCCC(c3ccccn3)C2)ncnc1C(=O)N1CCC(N2CCC(N(C)S(C)(=O)=O)CC2)CC1` (centres unmarked) [Example 159n], affinity was put at a Ki of 233 nM. Turning to `CCS(=O)(=O)N(C)C1CCN(C2CCN(C(=O)c3ncnc(NCc4ccc(C(F)(F)F)c(Cl)c4)c3C)CC2)CC1` [Example 33], the remaining activity at 10 µM is 0% and affinity was put at a Ki of 22 nM. The corresponding values for `Cc1cc(CNc2ncnc(C(=O)N3CCC(N4CCC(N(C)S(C)(=O)=O)CC4)CC3)c2C)ccc1F` [Example 55] are 17% and 200 nM. As for `Cc1c(NCC2CCCC(C)(C)C2)ncnc1C(=O)N1CCC(N2CCC(N(C)S(C)(=O)=O)CC2)CC1` (centres unmarked) [Example 159h], affinity was put at a Ki of 39 nM. In other words, the double-digit nanomolar range.

Regarding `Cc1c(NCc2ccc(C(C)(C)C)cc2)ncnc1C(=O)N1CCC(N2CCC(Cc3cccnc3)C2)CC1` (centres unmarked) [Example 228gf], the affinity, expressed as Ki, was 145 nM. `Cc1c(NCc2ccc(Cl)c(Cl)c2)ncnc1C(=O)N1CCC(N2CCC(C(F)(F)F)CC2)CC1` [Example 184]: the remaining activity at 10 µM was found to be 30% and the Ki stood at 908 nM. Take `Cc1c(NCCc2ccc(Cl)c(Cl)c2)ncnc1C(=O)N1CCC(N2CCC(F)(F)CC2)CC1` [Example 164]: the remaining activity at 10 µM is 15% and the Ki was found to be 353 nM.

Turning to `Cc1c(NCc2ccc(C(C)(C)C)cc2)ncnc1C(=O)N1CCC(N2CCC(S(=O)(=O)N(C)C)CC2)CC1` [Example 196], the remaining activity at 10 µM turned out to be 19% and the Ki was 666 nM.

Consider `Cc1c(NCC2CCCN(c3ccc(C(F)(F)F)cc3)C2)ncnc1C(=O)N1CCC(N2CCC(N(C)S(C)(=O)=O)CC2)CC1` (centres unmarked) [Example 159w], for which the Ki is 9 nM. In other words, the single-digit nanomolar range.

On to `Cc1c(NC[C@H]2CCC[C@@H](c3ccccc3)C2)ncnc1C(=O)N1CCC(N2CCC(N(C)S(C)(=O)=O)CC2)CC1` [Example 146], for which the remaining activity at 10 µM was 7% and the Ki is 3 nM. The matching figures for `CC(=O)N1CCN(C2CCN(C(=O)c3ncnc(NCCc4ccc(Cl)c(Cl)c4)c3C)CC2)CC1` [Example 230]: 45% and 1840 nM. The matching figures for `Cc1c(NCC2CCN(c3ccccc3)CC2)ncnc1C(=O)N1CCC(N2CCC(N(C)S(C)(=O)=O)CC2)CC1` [Example 58]: 12% and 336 nM. The corresponding values for `Cc1c(NCc2ccc(C(F)(F)F)c(F)c2)ncnc1C(=O)N1CCC(N2CCC(O)CC2)CC1` [Example 10] are 27% and 650 nM. `Cc1c(NCC2CCCC(c3ccc(F)cc3)C2)ncnc1C(=O)N1CCC(N2CCC(NS(C)(=O)=O)CC2)CC1` (centres unmarked) [Example 159ba] showed a Ki of 11 nM.

For the compound `Cc1c(/C=C/c2ccc(C(C)(C)C)cc2)ncnc1C(=O)N1CCC(N2CCOCC2)CC1` [Example 271], the remaining activity at 10 µM is 15% and the Ki turned out to be 1610 nM.
